Test results as given in patent US4462991A, “Method of increasing oral absorption of polar bioactive agents” (INTERx Research Corp., priority 1982, dated 1984).

Assay: Percent bioavailability after intraduodenal injection in anesthetized rats, (AUC)0-90 min relative to i.v.
Details: male, Sprague-Dawley, rat, in vivo, other: intraduodenal injection, 2.5 mg per animal, pH 5, Control (no adjuvant), intraduodenal injection 0.25 ml, drug 10 mg/ml, pH 5, ionic strength 0.3, AUC 0-90 min vs i.v., read-out: Percent Bioavailability (% BA)
Protocol: The following tests were run showing Percent Bioavailability (% BA)
The above tests were done according to the following protocol:
Animals: Male Sprague-Dawley rats (200-250 g)
Anesthesia: Ethyl carbamate by i.m. injection
Blood 0.6 ml from external jugular vein at
(AUC)o^90 calculated from summation
For the oral test an intraduodenal injection 1.0 cm distal to the pylorus was done . The volume of the injection was 0.25 ml at 0.3 ionic strength (adjusted with sodium chloride) and a pH of 5.
The drug was administered at 10 mg/ml unless otherwise noted and the adjuvant at 20 mg/ml unless otherwise noted.
The (AUC)i.v. was determined for each drug, based on the mean value from 3-6 animals.

A bioavailability of 1% was found for `CC(C)[C@@H]1NC(=O)[C@H](CCCCN)NC(=O)[C@@H](Cc2c[nH]c3ccccc23)NC(=O)[C@H](Cc2ccc(O)cc2)NC(=O)[C@H](C)N(C)C(=O)[C@H](Cc2ccccc2)NC1=O` [Cyclo-(N-Me-Ala-Tyr-D-Trp-Lys-Val-Phe)] in this work.
